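Method: 48-hour compound exposure of cells in 96-well plates, five concentrations, linear interpolation of endpoints. Abbreviation: GI50, concentration required for 50% inhibition of growth.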 Activity calls are given as the source filed them. No stated cut-off is given here; in the data, active = GI50 up to about 1.1 µM and inactive = higher.
Assays:
Experiment in all cases: NCI anticancer screen, dose series, 48 h
DLD-1 = system: DLD-1
DMS-114 = system: DMS-114
DMS-273 = system: DMS-273
HOP-18 = system: HOP-18
LXFL 529 = system: LXFL 529
M19-MEL = system: M19-MEL
RXF 631 = system: RXF 631
SNB-78 = system: SNB-78
XF498 = system: XF498

Measured: GI50

CCc1nc2c(O)ccc(O)c2nc1C
inactive: DLD-1 2.9 µM | DMS-114 18.2 µM | DMS-273 19.9 µM | HOP-18 20.9 µM | LXFL 529 4.97 µM | M19-MEL 7.35 µM | RXF 631 19.1 µM | SNB-78 27.8 µM | XF498 24.2 µM

CCCCCCCCCC1C(C)c2c([nH]c3ccccc23)C2C(=O)N(c3ccccc3)C(=O)C21 (stereo not drawn)
inactive: DLD-1 14.9 µM | DMS-114 14.7 µM | DMS-273 12.5 µM | LXFL 529 35.6 µM | RXF 631 3.05 µM | SNB-78 21.4 µM | XF498 11.2 µM

COc1ccc2nc3c(C(=O)NCCN(C)C)cccc3nc2c1
inactive: DMS-114 5.82 µM | DMS-273 4.42 µM | HOP-18 27.7 µM | M19-MEL 5.05 µM | SNB-78 7.16 µM

Cc1cc(NCCCCCCCCNc2cc(C)nc3cc(N)ccc23)c2ccc(N)cc2n1
inactive: DLD-1 16.9 µM | DMS-114 3.35 µM | DMS-273 4.56 µM | LXFL 529 11.3 µM | M19-MEL 15.5 µM

O=C1c2cccc(O)c2C(=O)c2cccc(O)c21 [ANTHRARUFIN]
inactive: DLD-1 > 100 µM | DMS-273 > 100 µM | LXFL 529 > 100 µM | M19-MEL > 100 µM | SNB-78 > 100 µM | XF498 > 100 µM

Nc1nc2c(ncn2C2CCC(CO)O2)c(=O)n1C(=O)c1ccccc1 (stereo not drawn)
inactive: DLD-1 > 100 µM | DMS-114 > 100 µM | DMS-273 > 100 µM | LXFL 529 > 100 µM | M19-MEL > 100 µM | RXF 631 > 100 µM | XF498 > 100 µM

C#CCNC(=O)NC(CCCCNC(=O)OCc1ccccc1)C(=O)OCc1ccccc1 (stereo not drawn)
inactive: DLD-1 > 100 µM | DMS-114 40.7 µM | DMS-273 > 100 µM | HOP-18 23 µM | LXFL 529 > 100 µM | M19-MEL 11.3 µM | SNB-78 23.9 µM | XF498 19.3 µM

Cn1ccc(=NS(=O)(=O)c2ccccc2)cc1
inactive: DLD-1 > 100 µM | DMS-114 > 100 µM | DMS-273 > 100 µM | HOP-18 85.3 µM | LXFL 529 > 100 µM | M19-MEL > 100 µM | RXF 631 > 100 µM | SNB-78 > 100 µM | XF498 > 100 µM

CC1=C(/C=C/C(C)=C/C=C/C(C)=C/C(=O)O)C(C)(C)CCC1 [TRETINOIN]
inactive: DLD-1 > 100 µM | DMS-114 > 100 µM | DMS-273 > 100 µM | HOP-18 > 100 µM | LXFL 529 > 100 µM | M19-MEL > 100 µM | XF498 > 100 µM

CC(C)(Br)C(=O)C(Br)Br
inactive: DLD-1 1.77 µM | DMS-114 5.36 µM | DMS-273 12.6 µM | LXFL 529 2.23 µM | M19-MEL 6.01 µM | RXF 631 14 µM | SNB-78 5.06 µM | XF498 11.6 µM

Fc1ccc(C2SCc3nc4ccccc4n32)c(F)c1 (stereo not drawn)
inactive: DLD-1 67.6 µM | DMS-114 31.8 µM | DMS-273 38 µM | HOP-18 > 100 µM | M19-MEL 65.5 µM | RXF 631 34.5 µM | SNB-78 38.1 µM

CCOC(=O)CN.CCOC(=O)Nc1ccc(S(=O)(=O)OC)cc1.CCOC(=O)Nc1ccc(S(=O)(=O)OC)cc1
inactive: DLD-1 > 50 µM | DMS-114 > 50 µM | DMS-273 > 50 µM | HOP-18 > 50 µM | LXFL 529 > 50 µM | M19-MEL > 50 µM | RXF 631 > 50 µM | SNB-78 > 50 µM

C#CCOCn1cnc2c(Sc3c([N+](=O)[O-])ncn3C)ncnc21
inactive: DLD-1 > 100 µM | DMS-114 > 100 µM | DMS-273 > 100 µM | LXFL 529 55.8 µM | M19-MEL > 100 µM | RXF 631 > 100 µM | XF498 > 100 µM

— ChEMBL document CHEMBL1201862, “PubChem BioAssay data set” (2004)
